# Results as given in patent US20090111177A1, “Maintenance of Embryonic Stem Cells by the GSK-3 Inhibitor 6-Bromoindirubin-3'-Oxime” (THE ROCKEFELLER UNIVERSITY, priority 2003, published 2009).
# Assays:
# HESCs (H1) = test: Embryoid body formation from HESCs; format: cell-based, human
# Method: Embryoid body (EB) formation. HESCs were harvested by using dispase (Invitrogen), plated on non-tissue culture treated dishes (approximately 10^7 cells/10 cm dish), and grown in non-conditioned medium for 7 d as described before (Sato et al., 2003, Molecular signature of human embryonic stem cells and its comparison with the mouse. Dev Biol 260, 404-413). The number of EBs was determined by counting EBs in 20 different fields at a low magnification (10×) using an Axiovert microscope (Zeiss). Experiments were repeated at least three times, and the average number as well as standard deviation were calculated. For the detection of differentiated derivatives by immunocytochemistry, EBs (day 7) were plated on collagen-coated 12-well plates to allow them to adhere, grown in DMEM containing 10% FBS to induce further differentiation for 7 d and fixed in 4% paraformaldehyde followed by immunostaining as shown below.
# RT-PCR. Two μg of total RNA extracted from EBs (day 7) or mouse embryonic fibroblasts was reverse-transcribed using ThermoScript RT-PCR system (Invitrogen) according to the manufacturer's protocol. One μl of cDNA sample was PCR amplified with each gene-specific primers (shown below) using optimized PCR cycles to obtain amplified reactions in a linear range.
# MESCs = test: Teratoma formation from treated MESCs in syngenic mice; format: in vivo, mouse; settings: MESCs grown in 1 μM, subcutaneous injection into syngenic mice
# Method: Teratoma formation. We grew CJ-GFP cells at a low density (500 cells/cm^2) on gelatin-coated 10 cm dishes in medium containing 6-bromoindirubin-3′-oxime 1 μM for 7 d, then passaged cells at the same density and cultured under the same condition another 5 d to further enforce differentiation of cells. […] 6-bromoindirubin-3′-oxime-treated cells (approximately 5×10^6 cells/mouse) were subcutaneously injected into the left flank of syngenic 129 background mice. After three to five weeks, the developed teratoma (approximately 20 mm in diameter) was excised, fixed in 4% paraformaldehyde and subjected to hematoxylin and eosin staining for histological examinations.
# Rex-1 promoter = test: Rex-1 YFP reporter line CJRex-Y (imaging / FACS); format: cell-based, mouse; settings: CJRex-Y cells, 5 d
# Method: Generation of stable mouse ES lines. CJ7 ES cells were transfected with pRex-1-Venus, pTY or pCAG-HygEGFP by using Lipofectamine 2000 (Invitrogen) followed by G418 (Invitrogen) selection at 200 μg/ml (for CJRex-Y or CJ-TY) or hygromycine (Invitrogen) selection at 600 μg/ml (for CJ-GFP). Two weeks after the drug selection, a number of single colonies were picked up, expanded and used for the further analyses.
# FACS analysis of MESCs. We cultured CJRex-Y cells at a low density (500 cells/cm^2) on gelatin-coated 10 cm dishes in mouse ES cell medium alone, medium containing LIF, medium conditioned from wild type L cells or medium conditioned from Wnt3a-L cells (ATCC) for 5 days. The Wnt3a conditioned medium was prepared according to the provider's protocol. Cells were harvested, resuspended in mouse ES medium and subjected to FACS analysis using FACSVantage SE system (BD Biosciences).
# CJ-GFP cells (MESCs) [1] = test: Low-density culture of CJ-GFP MESCs without LIF, morphology; format: cell-based, mouse; settings: 1 μM; 7 d plus 5 d at low density; data not shown for Me analogue
# Method: Teratoma formation. We grew CJ-GFP cells at a low density (500 cells/cm^2) on gelatin-coated 10 cm dishes in medium containing 6-bromoindirubin-3′-oxime 1 μM for 7 d, then passaged cells at the same density and cultured under the same condition another 5 d to further enforce differentiation of cells.
# CJ-GFP cells (MESCs) [2] = test: Blastocyst injection of treated CJ-GFP cells, chimera generation; format: in vivo, mouse
# Method: Blastocyst injection. We cultured CJ-GFP cells at a low density (500 cells/cm^2) on gelatin-coated 10 cm dishes in medium containing 6-bromoindirubin-3′-oxime 1 μM for 5 d. 6-bromoindirubin-3′-oxime-treated cells (approximately 10 to 15 cells per blastocyst) were microinjected into each blastocyst and transferred into surrogate mice in the C57Bl/6 background. Mid-gestation embryos were recovered and subjected to tissue sectioning. Chimerism of live offspring was determined by evaluation of their mixed coat color.
# Immunofluorescence. Cells were fixed in 4% paraformaldehyde for 20 min at room temperature and incubated overnight at 4° C. with primary antibodies against Oct-4 (BD Biosciences), β-catenin (BD Biosciences), Tuj-1 (BAbCO), cytokeratin (Sigma), glial fibrillary acidic protein, GFAP, (Dako), smooth muscle actin (Research Diagnostics Inc), α-fetoprotein (α-FP, Cell Sciences) and Tromal (Developmental Studies Hybridoma Bank). […] For the quantitative image analysis, fluorescent images from triplicate samples were taken by the Discovery1 system (Universal Imaging Corporation). The fluorescent objects were selected by the threshold function and evaluated in five regions of each well by quantification of pixel intensities and the object size by using MetaMorph software (Universal Imaging Corporation).
# [3] = test system: canonical Wnt pathway (TCF binding sites, TopFlash); test: TopFlash luciferase reporter assay in 293 cells; format: cell-based; settings: 293 human kidney epithelial cells; micromolar concentrations; data not shown
# Method: Luciferase assay. […] Test compounds were added 24 hrs after transfection. Following incubation for 24 hrs, cells were harvested, and analyzed by the dual luciferase reporter assay system (Promega) using Lumat (Berthold Technologies). Each value was standardized by Renilla luciferase activity.
# The canonical Wnt signal occurs through binding of the Wnt protein to the Frizzled receptor at cell surface. It is followed by inactivation of GSK-3, leading to accumulation of β-catenin in the nucleus that activates the transcription of Wnt target genes in collaboration with TCFs^18,19. Alternatively, Wnt signaling can be activated by direct, intracellular inhibition of the GSK-3 function using specific inhibitors^20. […] First we examined whether mouse and human ESCs were capable of transducing Wnt signaling under the influence of 6-bromoindirubin-3′-oxime. […] We then evaluated expression of β-catenin at the cellular level as a read-out of the activation status of the canonical Wnt pathway in HESCs.
compound,measurement,setting,value
O=C1Nc2cc(Br)ccc2/C1=C1/Nc2ccccc2/C1=N\O [6-bromoindirubin-3′-oxime],lineage-specific markers of EBs by RT-PCR,"HESCs (H1); EBs day 7, FIG. 5b","developed into ectoderm (NeuroD and keratin), mesoderm (T gene) and endoderm (α-fetoprotein and GATA4) derivatives"
same,differentiation phenotype of adherent EBs by immunocytochemistry,"HESCs (H1); EBs grown under adherent condition, FIG. 5c",wide variety of morphology and lineage-specific molecule expression
same,EBs formation,"HESCs (H1); H1 cells after treatment, FIG. 5a",at a level comparable to that seen with conditioned medium-treated cells
same,"teratoma formation, germ layer derivatives",MESCs,generated teratomas consisting of all three germ layer-derived tissues
same,colony morphology / cell shape,Rex-1 promoter; FIG. 3b,more compact than those observed in LIF-treated cells
same,Rex-1 transcriptional (YFP reporter) activity,Rex-1 promoter; absence of LIF,strong transcriptional activity
same,colony morphology of MESCs without LIF,CJ-GFP cells (MESCs) [1],still formed round tight colonies
same,coat-color chimerism of live offspring,"CJ-GFP cells (MESCs) [2]; initial assessment, new-born animals",two of five new-born animals were chimeric
same,incorporation of treated cells into embryonic tissues,"CJ-GFP cells (MESCs) [2]; mid-gestation stage, immunohistochemistry, FIG. 6",incorporated into several embryonic tissues
same,TopFlash reporter activity,[3],robustly upregulated the reporter activity
